Data taken from patent EP4389751A1, “HETEROCYCLIC COMPOUNDS AND USES THEREOF” (Kumquat Biosciences Inc., priority 2021, dated 2024).
Where two headings read alike, the source gives them in different places.

Columns and labels:
[1] = target: T1, KRAS protein (His-tagged GDP-loaded G12S 1-169) (Homo sapiens, UniProt P01116, G12S); experiment: Covalent modification of KRAS protein, intact-protein LC-MS; type: binding; settings: 24hrs at room temperature, KRAS protein ~2 µM
T1 construct: His-tagged GDP-loaded G12S 1-169
How it was run: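 His-tagged GDP-loaded KRAS 1-169 (~2 µM) incubated with compound 24 h at room temperature, then quenched with formic acid. Intact-protein LC-ESI-MS on C4 column; deconvoluted peak intensities of unmodified and adducted protein give percent covalent modification.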

GP2D cells = experiment: Cell proliferation assay (CellTiter-Glo), K-Ras G12D cells; type: cell-based; settings: GP2D cells (K-Ras G12D); read-out: Inhibition of GP2D Cells (IC50)
How it was run: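 GP2D (K-Ras G12D) cells seeded in DMEM with 2 mM glutamine and 10% FBS, then dosed next day with a dilution series (e.g., 9-point 3-fold). Viability read by CellTiter-Glo luminescence after about 5 days. IC50 from four-parameter fit.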

A549 cells = experiment: Cell proliferation assay (CellTiter-Glo), K-Ras G12S cells; type: cell-based; settings: for IC50: Homo sapiens, A549, A549 cells (K-Ras G12S), read-out: Inhibition of A549 Cells (IC50); for ratio of IC50 against a G12D cell line to IC50 against a G12S cell line: K-Ras G12D cell line such as GP2D relative to K-Ras G12S cell line such as A549, greater than 1, 2, 3, 4, 5, 10, 15 or even greater, 8640 min
How it was run: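 A549 cells (K-Ras G12S) in RPMI-1640 with 10% FBS, seeded in standard or ultra-low-attachment plates and dosed next day with a 10-point 3-fold series. Viability read about 6 days later by CellTiter-Glo luminescence. IC50 from four-parameter fit.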

K-Ras G12S = target: T2, K-Ras G12S (Homo sapiens, UniProt P01116, G12S); experiment: HTRF assay of the K-Ras / SOS1 interaction; type: biochemical; settings: IC50 (against K-Ras G12D) to IC50 (against K-Ras G12S)
T2 construct: made in house; host or cells: E. coli (e.g., BL21 (DE3))
How it was run: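 GST-K-Ras G12S with anti-GST-Eu donor and His-hSOS1 with anti-6His-XL665 acceptor in ~5 mM HEPES pH 7.4, ~150 mM NaCl, 1 mM DTT, 0.05% BSA, 0.0025% Igepal. Read after ~10 min or longer; IC50 from 665/620 nm ratio, duplicates at 10 µM down to 0.01 µM.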

[2] = Metabolic (microsomal) stability assay; type: in vitro ADME; settings: liver microsomes, pH 7.4; mouse and/or human liver microsomal metabolism assays; greater than 10, 20, 30, 40, 50, 60 mins or longer
Description: All incubations are conducted in duplicate. […] Supernatants (40 µL) are transferred into clean 96-deep well plates.
The column temperature is maintained at 40 °C.
(Ct)/(C0) = e^−kt [formula]

Row | SMILES | IC50 (A549 cells; bin ≤ 500 nM) | ratio of IC50 against a G12D cell line to IC50 against a G12S cell line (A549 cells) | % G12S Modification at 24 hr. [1] | IC50 (GP2D cells) | Ratio of IC50 KRAS G12D vs. IC50 KRAS G12S (K-Ras G12S) | half-life at 0.5 µM [2] | IC50 (A549 cells; bin 500 nM to 5 µM)
1 | N#Cc1c(N)sc2c(F)ccc(-c3c(Cl)cc4c(N5CC(F)(F)C6(CN(C(=O)n7cncn7)C6)C5)nc(OC[C@@]56CCCN5C[C@H](F)C6)nc4c3F)c12 [Compound A199, 2-amino-4-(6-chloro-4-(8,8-difluoro-2-(1H-1,2,4-triazole-1-carbonyl)-2,6-diazaspiro[3.4]octan-6-yl)-8-fluoro-2-(((2R,7aS)-2-fluorotetrahydro-1H-pyrrolizin-7a(5H)-yl)methoxy)quinazolm-7-yl)-7-fluorobenzo[b]thiophene-3-carbonitrile] | – | greater than 1 | +++ (+++ indicates greater than 20% labelling) | – | A (A: indicates that the ratio of IC50 against KrasG12D vs. IC50 against KrasG12S is 1-fold or greater) | – | –
2 | C#Cc1c(F)ccc2cc(O)cc(-c3ncc4c(N5CCCC6(CN(C(=O)n7cncn7)C6)C5)nc(OC[C@@]56CCCN5C[C@H](F)C6)nc4c3F)c12 [Compound A133, (6-(7-(8-ethynyl-7-fluoro-3-hydroxynaphthalen-1-yl)-8-fluoro-2-(((2R,7aS)-2-fluorotetrahydro-1H-pyrrolizin-7a(5H)-yl)methoxy)pyrido[4,3-d]pyrimidin-4-yl)-2,6-diazaspiro[3.5]nonan-2-yl)(1H-1,2,4-triazol-1-yl)methanone] | ≤ 0.5 µM | – | +++ (+++ indicates greater than 20% labelling) | 1 to 10 µM | – | – | –
3 | C#Cc1c(F)ccc2cc(O)cc(-c3ncc4c(N5CCOC6(CN(C(=O)n7cncn7)C6)C5)nc(OC[C@@]56CCCN5C[C@H](F)C6)nc4c3F)c12 [Compound A106, (8-(7-(8-ethynyl-7-fluoro-3-hydroxynaphthalen-1-yl)-8-fluoro-2-(((2R,7aS)-2-fluorotetrahydro-1H-pyrrolizin-7a(5H)-yl)methoxy)pyrido[4,3-d]pyrimidin-4-yl)-5-oxa-2,8-diazaspiro[3.5]nonan-2-yl)(1H-1,2,4-triazol-1-yl)methanone] | ≤ 0.5 µM | – | +++ (+++ indicates greater than 20% labelling) | 1 to 10 µM | – | – | –
4 | C[C@H](Oc1nc(N2CCOC3(CN(C(=O)n4cncn4)C3)C2)c2cc(Cl)c(-c3ccc(F)c4sc(N)c(C#N)c34)c(F)c2n1)[C@@H]1CCCN1C [Compound A275, 4-(4-(2-(1H-1,2,4-triazole-1-carbonyl)-5-oxa-2,8-diazaspiro[3.5]nonan-8-yl)-6-chloro-8-fluoro-2-((S)-1-((S)-1-methylpyrrolidin-2-yl)ethoxy)quinazolin-7-yl)-2-amino-7-fluorobenzo[b]thiophene-3-carbonitrile] | ≤ 0.5 µM | – | +++ (+++ indicates greater than 20% labelling) | 1 to 10 µM | – | – | –
5 | N#Cc1cnn(C(=O)N2C3CCC2CN(c2nc(OC[C@@]45CCCN4C[C@H](F)C5)nc4c(F)c(-c5ccc(F)c6sc(N)c(C#N)c56)c(Cl)cc24)C3)c1 [Compound A278, 1-(3-(7-(2-amino-3-cyano-7-fluorobenzo[b]thiophen-4-yl)-6-chloro-8-fluoro-2-(((2R,7aS)-2-fluorotetrahydro-1H-pyrrolizin-7a(5H)-yl)methoxy)quinazolin-4-yl)-3,8-diazabicyclo[3.2.1]octane-8-carbonyl)-1H-pyrazole-4-carbonitrile] | – | – | – | ≤ 1 µM | A (A: indicates that the ratio of IC50 against KrasG12D vs. IC50 against KrasG12S is 1-fold or greater) | > 10 min | –
6 | N#Cc1c(N)sc2c(F)ccc(-c3c(Cl)cc4c(N5CCCCC6(CN(C(=O)n7cncn7)C6)C5)nc(OC[C@@]56CCCN5C[C@H](F)C6)nc4c3F)c12 [Compound A295, 4-(4-(2-(1H-1,2,4-triazole-1-carbonyl)-2,6-diazaspiro[3.6]decan-6-yl)-6-chloro-8-fluoro-2-(((2R,7aS)-2-fluorotetrahydro-1H-pyrrolizin-7a(5H)-yl)methoxy)quinazolin-7-yl)-2-amino-7-fluorobenzo[b]thiophene-3-carbonitrile] | ≤ 0.5 µM | – | +++ (+++ indicates greater than 20% labelling) | ≤ 1 µM | – | – | –
7 | C#Cc1c(F)ccc2cc(O)cc(-c3ncc4c(N5CC6CCC(C5)N6C(=O)n5cnc(C#N)c5)nc(OC[C@@]56CCCN5C[C@H](F)C6)nc4c3F)c12 [Compound A255, 1-(3-(7-(8-ethynyl-7-fluoro-3-hydroxynaphthalen-1-yl)-8-fluoro-2-(((2R,7aS)-2-fluorotetrahydro-1H-pyrrolizin-7a(5H)-yl)methoxy)pyrido[4,3-d]pyrimidin-4-yl)-3,8-diazabicyclo[3.2.1]octane-8-carbonyl)-1H-imidazole-4-carbonitrile] | – | – | ++ (++ indicates between about 1%- 20% labelling) | ≤ 1 µM | – | – | 0.5 to 5 µM
8 | N#Cc1c(N)sc2c(F)ccc(-c3c(Cl)cc4c(N5CCC6CN(C(=O)n7cncn7)CC65)nc(OC[C@@]56CCCN5C[C@H](F)C6)nc4c3F)c12 (stereo partly drawn) [Compound A178, 4-(4-(5-(1H-1,2,4-triazole-1-carbonyl)hexahydropyrrolo[3,4-b]pyrrol-1(2H)-yl)-6-chloro-8-fluoro-2-(((2R,7aS)-2-fluorotetrahydro-1H-pyrrolizin-7a(5H)-yl)methoxy)quinazolm-7-yl)-2-amino-7-fluorobenzo[b]thiophene-3-carbonitrile] | ≤ 0.5 µM | – | +++ (+++ indicates greater than 20% labelling) | ≤ 1 µM | – | – | –

Now from value to molecule, other results behind:

Row | IC50 (A549 cells; bin ≤ 500 nM) | ratio of IC50 against a G12D cell line to IC50 against a G12S cell line (A549 cells) | SMILES | % G12S Modification at 24 hr. [1] | IC50 (GP2D cells) | Ratio of IC50 KRAS G12D vs. IC50 KRAS G12S (K-Ras G12S) | half-life at 0.5 µM [2] | IC50 (A549 cells; bin 500 nM to 5 µM)
9 | ≤ 0.5 µM | greater than 1 | C#Cc1c(F)ccc2cc(O)cc(-c3ccc4c(N5CCCC6(CN(C(=O)n7cncn7)C6)C5)nc(OC[C@@]56CCCN5C[C@H](F)C6)nc4c3F)c12 [Compound A210, (6-(7-(8-ethynyl-7-fluoro-3-hydroxynaphthalen-1-yl)-8-fluoro-2-(((2R,7aS)-2-fluorotetrahydro-1H-pyrrolizin-7a(5H)-yl)methoxy)quinazolin-4-yl)-2,6-diazaspiro[3.5]nonan-2-yl)(1H-1,2,4-triazol-1-yl)methanone] | +++ (+++ indicates greater than 20% labelling) | 1 to 10 µM | – | – | –
10 | ≤ 0.5 µM | greater than 1 | C[C@H](Oc1nc(N2CCCCC3(CN(C(=O)n4cncn4)C3)C2)c2cc(Cl)c(-c3ccc(F)c4sc(N)c(C#N)c34)c(F)c2n1)[C@@H]1CCCN1C [Compound A219, 4-(4-(2-(1H-1,2,4-triazole-1-carbonyl)-2,6-diazaspiro[3.6]decan-6-yl)-6-chloro-8-fluoro-2-((S)-1-((S)-1-methylpyrrolidin-2-yl)ethoxy)quinazolin-7-yl)-2-amino-7-fluorobenzo[b]thiophene-3-carbonitrile] | +++ (+++ indicates greater than 20% labelling) | ≤ 1 µM | – | – | –
11 | ≤ 0.5 µM | greater than 1 | C#Cc1c(F)ccc2cc(O)cc(-c3ncc4c(N5CCCCC6(CN(C(=O)n7cncn7)C6)C5)nc(OC[C@@]56CCCN5C[C@H](F)C6)nc4c3F)c12 [Compound A128, (6-(7-(8-ethynyl-7-fluoro-3-hydroxynaphthalen-1-yl)-8-fluoro-2-(((2R,7aS)-2-fluorotetrahydro-1H-pyrrolizin-7a(5H)-yl)methoxy)pyrido[4,3-d]pyrimidin-4-yl)-2,6-diazaspiro[3.6]decan-2-yl)(1H-1,2,4-triazol-1-yl)methanone] | +++ (+++ indicates greater than 20% labelling) | ≤ 1 µM | – | – | –
12 | ≤ 0.5 µM | – | N#Cc1c(N)sc2c(F)ccc(-c3c(Cl)cc4c(N5CCOC6(CN(C(=O)n7cncn7)C6)C5)nc(OC[C@@]56CCCN5C[C@H](F)C6)nc4c3F)c12 [Compound A162, 4-(4-(2-(1H-1,2,4-triazole-1-carbonyl)-5-oxa-2,8-diazaspiro[3.5]nonan-8-yl)-6-chloro-8-fluoro-2-(((2R,7aS)-2-fluorotetrahydro-1H-pyrrolizin-7a(5H)-yl)methoxy)quinazolin-7-yl)-2-amino-7-fluorobenzo[b]thiophene-3-carbonitrile] | +++ (+++ indicates greater than 20% labelling) | – | A (A: indicates that the ratio of IC50 against KrasG12D vs. IC50 against KrasG12S is 1-fold or greater) | – | –
